These results are taken from patent publication US8637474B2, “Receptor modulators exhibiting neuroprotective and memory enhancing activities” (The Hong Kong University of Science and Technology, priority 2007, dated 2014).

Entries after “also recorded” stand apart in the source; their conditions may differ.

In series [1] the test system is rat primary cortical neurons. The series can be described thus: NMDA survival assay (LDH release), primary cortical neurons. The conditions noted are these: NMDA 20 μM; for reduction of cell death compared to DA001: compounds in μg/ml, FIG. 13. The class given is cell-based. The protocol: FIG. 5 DA001 protects against NMDA excitotoxicity in rat cortical neurons. Embryonic rat cortical neurons (11DIV) were treated with NMDA (20 μM) in the absence or presence of TCM samples (μg/ml) or memantine (μM). Memantine is a known NMDA antagonist. LDH release in the medium was measured after overnight incubation and cell cytotoxicity was calculated as a percentage when compared to the solvent control, DMSO.
FIG. 12. Derivatives of DA001 rescue the cortical neurons from NMDA excitotoxicity. Embryonic rat cortical neurons (11DIV) were treated with NMDA (20 μM) in the absence or presence of DA001 or its derivatives (10 or 30 μM); LDH release in the medium after overnight or 24 hours incubation was measured and cell death was calculated as a percentage in comparison to DMSO, the solvent control. Data are expressed as mean±s.e.m. *=P<0.05.
FIG. 13. DA002 and DA021, both derivatives of DA001, reduced NMDA-induced excitotoxicity. Embryonic rat cortical neurons (11DIV) were treated with NMDA (20 μM) in the absence or presence of DA002 or DA021 (μg/ml). LDH release in the medium after overnight incubation was measured and cell cytotoxicity was calculated as a percentage in comparison to DMSO, the solvent control.
DA001 (at 10 μg/ml) reduced cell death by more than 60% compared to the DMSO control. Compound A0178 and memantine were included as negative and positive controls, respectively.
Memantine is an FDA-approved NMDA antagonist used for clinical indications such as dementia in Alzheimer's disease. Dose-dependant assays were performed for each compound and based on the resulting dose response curve, the corresponding EC50 for each compound was determined.
NMDA survival assays were performed to measure the degree of protection provided to cortical neuronal cells when treated with the novel compounds (at 30 μM, except DA026 at 10 μM) prior to NMDA insult.
Compounds derived from DA001 were tested for their ability to inhibit NMDA-induced excitotoxicity. Primary rat cortical neurons were subjected to NMDA insults in the presence and absence of the novel derivatives.
Cortical neurons were pre-treated with DA001 and subsequently subjected to varying concentrations of NMDA. Survival assays were then conducted to determine the ability of DA001 to effectively protect neuronal cells from NMDA-induced excitotoxicity.
LDH release into the medium was then measured.
Primary cortical and hippocampal neurons were prepared from embryonic day 18 (E18) Sprague-Dawley rats. Neurons were plated on 24-well pate (TPP, Corning) at a density of 2×10^5 cells per well using Neurobasal medium (Invitrogen) supplemented with 2% B27 (Invitrogen). […] The cell death was assayed and quantified using the lactate dehydrogenase release assay (Roche) after 24 hours. […]
(LDH in the medium is a marker of cell lysis.)

For series [2], the system named is rat primary hippocampal neurons. The series can be described thus: NMDA survival assay (LDH release), primary hippocampal neurons. The conditions noted are these: DA001 30 μM, NMDA 20 μM. The class given is cell-based. The protocol:
FIG. 6. DA001 protects against NMDA excitotoxicity in rat primary hippocampal neurons. Embryonic rat hippocampal neurons (11 DIV) were treated with NMDA (20 μM) in the absence or presence of DA001 (μM) or memantine (μM). LDH release in the medium was measured after overnight incubation and cell cytotoxicity was calculated in percentage when compared to solvent control (DMSO).
DA001 (at 30 μM) reduced cell death by ˜80%.
Primary cortical and hippocampal neurons were prepared from embryonic day 18 (E18) Sprague-Dawley rats. Neurons were plated on 24-well pate (TPP, Corning) at a density of 2×10^5 cells per well using Neurobasal medium (Invitrogen) supplemented with 2% B27 (Invitrogen). Neurons at 11-12 days in vitro (12DIV) were subjected to drug treatment. Neurons were pretreated with the test compound for 2 hours prior to NMDA treatment. 0.1 μM(+)-MK-801 Hydrogen Maleate (Sigma) was added as a positive control. Briefly, the neurons were rinsed with Locke's solution (5 mM potassium chloride, 128 mM sodium chloride, 2.7 mM calcium chloride, 1 mM di-sodium hydrogen orthophosphate, 5 mM HEPES and 10 mM glucose in Milli-Q water) without Mg^2+, and incubated with addition of glycine (10 μM) for 15 minutes. […] The cell death was assayed and quantified using the lactate dehydrogenase release assay (Roche) after 24 hours.

The test system of a further series is primary cortical neurons. The series can be described thus: Cell toxicity test (LDH) on primary neurons. The class given is cell-based. The following applies: 24 hours, all concentrations, maximum dose 70 μM. The protocol: FIG. 8. […] Primary cortical neurons were treated with different concentrations of DA001 for 24 hours.
This was performed to study the effects of the invention on primary neurons. Cortical neurons isolated from embryonic day 18 Spraque-Dawley rats were cultured in Neurobasal medium supplemented with 2% B27 and penicillin/streptomycin solution (Invitrogen). Primary neurons of 7 days in culture (7 DIV) were treated with various concentrations of the invention in the absence of B27 for 24 hours. Lactate dehydrogenases (LDH) was released into the medium and measured and calculated as percentage compared to 1% Triton X-100.

The next series has as its system BDNF expression. The series can be described thus: Real-time quantitative PCR, BDNF expression following NMDA treatment. The class given is cell-based, rat. On the procedure:
FIG. 20 illustrates that DA001 induces BDNF and NT-3 expression but not Bcl-2 or c-fos following NMDA treatment.
Cortical neurons were pre-treated with DA001 prior to being subjected to NMDA insults, after which total RNA was extracted at different time intervals after treatment. There was a 5-fold increase in BDNF expression after a 6 hour incubation period. BDNF expression remained ˜3-4 fold over the control (DMSO) 12-24 hours after treatment with DA001.
Total RNA was extracted followed by cDNA synthesis. Gene expression was normalized against home gene, hypoxanthine phosphoribosyltransferase 1 (HPRT1) and glyceraldehyde 3-phosphate dehydrogenase (GAPDH). Relative change in gene expression induced by DA001+H2O and DA001+NMDA was compared with the controls, DMSO+H2O and DMSO+NMDA, respectively.
Cortical neurons were pre-treated with DA001 after which the cells were subjected to NMDA insult. The expression of BDNF was measured at three different time intervals and compared to that of NT-3, Bcl-2 and c-fos. DA001 induced BDNF and NT-3 expression but not bcl-2 or c-fos under the same conditions. […]
Cortical neurons of 11DIV-12DIV were pre-incubated with DA001 or DMSO for 24hours. […] Real-time Quantitative PCR was performed using Power SYBR Green PCR Master Mix (Applied Biosystems) on the M×3000P Real-Time PCR System (Stratagene). […]

Series [3] has as its target melanocortin-1 (MC1) receptor (Homo sapiens, UniProt Q01726). The series can be described thus: Radioligand competition binding assay, MC1. On the procedure: (§1) DA001 was evaluated against 109 receptor binding assays and 17 enzyme assays, comprising of selective, central and peripheral therapeutically-relevant targets. Radioligand competition assays were conducted whereby DA001 was tested at one concentration (10 μM) in duplicate. […] It could compete with the radioligand [^125I-NDP-alpha-melanocyte-stimulating hormone (α-MSH)] binding for MC1 and MC4 but not MC3 and MC5 nor the related family, the melanin concentrating hormone receptors (MCH1 and MCH2).
(§2) To determine the IC50 for DA001 to inhibit α-MSH binding on MC1 and MC4 receptor, the compound was further characterized by a dose-dependent study. DA001 was evaluated with 8 concentrations on MC1 and MC4 receptor binding assays.
(§3) The specific ligand binding to the receptors is defined as the difference between the total binding and the nonspecific binding determined in the presence of an excess of unlabelled ligand. The results are expressed as a percent of control specific binding [(measured specific binding/control specific binding)×100] and as a percent inhibition of control specific binding {100−[(measured specific binding/control specific binding)×100]} obtained in the presence of DA001. The IC50 values (concentration causing a half-maximal inhibition of control specific binding) and Hill coefficients (nH) were determined by non-linear regression analysis of the competition curves generated with mean replicate values using Hill equation curve fitting (Y=D+[(A−D)/(1+(C/C50)nH)], where Y=specific binding, D=minimum specific binding, A=maximum specific binding, C=compound concentration, C50=IC50, and nH=slope factor). This analysis was performed using a software developed at Cerep (Hill software) and validated by comparison with data generated by the commercial software SigmaPlot® 4.0 for Windows® (© 1997 by SPSS Inc.).
(In a radioligand displacement assay an active substance lowers the binding of a labelled ligand.)

The target in the next series is MC3 (Homo sapiens, UniProt P41968). Put plainly: Radioligand competition binding assay, MC3. The conditions noted are these: MC3, DA001 10 μM, duplicate; read-out: % inhibition of control specific binding. On the procedure: as §1
Chain of MC3 (P41968 whole entry): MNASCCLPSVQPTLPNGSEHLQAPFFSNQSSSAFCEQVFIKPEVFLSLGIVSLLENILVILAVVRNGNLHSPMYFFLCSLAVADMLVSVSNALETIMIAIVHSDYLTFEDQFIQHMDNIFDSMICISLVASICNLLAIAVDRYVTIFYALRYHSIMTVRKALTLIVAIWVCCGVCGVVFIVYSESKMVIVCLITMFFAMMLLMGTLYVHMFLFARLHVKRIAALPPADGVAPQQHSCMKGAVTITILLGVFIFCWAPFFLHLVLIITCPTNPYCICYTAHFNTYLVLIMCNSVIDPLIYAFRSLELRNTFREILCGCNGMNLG
The target of series [4] is melanocortin-4 (MC4) receptor (Homo sapiens, UniProt P32245). Put plainly: Radioligand competition binding assay, MC4. On the procedure:
as §1, §2, §3

In the next series the target is MC5 (Homo sapiens, UniProt P33032). The series can be described thus: Radioligand competition binding assay, MC5. The conditions noted are these: MC5, DA001 10 μM, duplicate; read-out: % inhibition of control specific binding. The protocol: as §1
Chain of MC5 (P33032 whole entry): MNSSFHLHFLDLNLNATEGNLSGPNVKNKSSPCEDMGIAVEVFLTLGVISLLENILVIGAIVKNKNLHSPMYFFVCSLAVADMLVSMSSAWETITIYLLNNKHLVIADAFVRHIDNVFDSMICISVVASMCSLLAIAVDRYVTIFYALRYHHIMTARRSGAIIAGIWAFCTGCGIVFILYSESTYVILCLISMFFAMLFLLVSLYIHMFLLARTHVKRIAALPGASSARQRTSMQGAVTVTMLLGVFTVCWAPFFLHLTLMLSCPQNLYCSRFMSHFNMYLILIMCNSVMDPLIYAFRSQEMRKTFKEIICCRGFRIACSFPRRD
In series [5] the target is melanin concentrating hormone receptor MCH1 (Homo sapiens, UniProt Q99705). Put plainly: Radioligand competition binding assay, MCH1. The conditions noted are these: MCH1, DA001 10 μM, duplicate; read-out: % inhibition of control specific binding. The protocol:
as §1

In series [6] the target is melanin concentrating hormone receptor MCH2 (Homo sapiens, UniProt Q969V1). Put plainly: Radioligand competition binding assay, MCH2. The conditions noted are these: MCH2, DA001 10 μM, duplicate; read-out: % inhibition of control specific binding. On the procedure:
as §1

The target in another series is melatonin (MT1) receptor (Homo sapiens, UniProt P48039). The series can be described thus: Radioligand competition binding assay, MT1. The conditions noted are these: MT1, DA001 10 μM, duplicate; read-out: % inhibition of control specific binding. The protocol: as §1
Chain of melatonin (MT1) receptor (P48039 whole entry): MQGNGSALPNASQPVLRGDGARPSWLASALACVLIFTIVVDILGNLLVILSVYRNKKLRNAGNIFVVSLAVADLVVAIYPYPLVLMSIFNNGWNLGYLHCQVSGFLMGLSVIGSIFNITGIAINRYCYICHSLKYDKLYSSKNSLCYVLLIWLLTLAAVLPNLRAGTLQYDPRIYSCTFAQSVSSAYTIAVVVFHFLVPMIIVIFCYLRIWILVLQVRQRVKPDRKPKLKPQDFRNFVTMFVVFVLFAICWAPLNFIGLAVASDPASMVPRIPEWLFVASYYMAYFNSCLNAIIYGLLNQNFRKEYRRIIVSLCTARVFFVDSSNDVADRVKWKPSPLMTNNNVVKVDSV

As a reminder, the Ki is a dissociation constant, usually derived from enzyme kinetics or from competition with a known ligand. Read a low Ki as tighter binding. As a reminder, the IC50 is the midpoint of a concentration-inhibition curve. A lower IC50 goes with greater potency in that assay. As a reminder, the inhibition is the drop in the measured response relative to a control, in per cent.

Chain of melanocortin-1 (MC1) receptor (Q01726 whole entry): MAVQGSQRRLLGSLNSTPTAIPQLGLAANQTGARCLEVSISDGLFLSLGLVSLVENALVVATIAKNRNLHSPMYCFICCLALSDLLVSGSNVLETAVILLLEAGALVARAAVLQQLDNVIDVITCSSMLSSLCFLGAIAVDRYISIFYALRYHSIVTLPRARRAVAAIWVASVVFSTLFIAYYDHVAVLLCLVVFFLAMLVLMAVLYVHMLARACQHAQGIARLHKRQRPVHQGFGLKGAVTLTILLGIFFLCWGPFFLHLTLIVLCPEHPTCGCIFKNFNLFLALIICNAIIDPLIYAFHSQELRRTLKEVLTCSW
Chain of melanocortin-4 (MC4) receptor (P32245 whole entry): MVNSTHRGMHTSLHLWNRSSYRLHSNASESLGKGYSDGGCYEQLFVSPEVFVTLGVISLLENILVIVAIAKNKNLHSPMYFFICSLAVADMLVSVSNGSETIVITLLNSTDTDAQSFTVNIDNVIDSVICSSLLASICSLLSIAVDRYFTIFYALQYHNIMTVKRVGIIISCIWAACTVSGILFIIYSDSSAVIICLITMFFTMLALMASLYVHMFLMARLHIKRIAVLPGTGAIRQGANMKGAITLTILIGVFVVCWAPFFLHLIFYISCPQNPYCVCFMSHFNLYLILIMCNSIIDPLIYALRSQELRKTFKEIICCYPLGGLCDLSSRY
Chain of melanin concentrating hormone receptor MCH2 (Q969V1 whole entry): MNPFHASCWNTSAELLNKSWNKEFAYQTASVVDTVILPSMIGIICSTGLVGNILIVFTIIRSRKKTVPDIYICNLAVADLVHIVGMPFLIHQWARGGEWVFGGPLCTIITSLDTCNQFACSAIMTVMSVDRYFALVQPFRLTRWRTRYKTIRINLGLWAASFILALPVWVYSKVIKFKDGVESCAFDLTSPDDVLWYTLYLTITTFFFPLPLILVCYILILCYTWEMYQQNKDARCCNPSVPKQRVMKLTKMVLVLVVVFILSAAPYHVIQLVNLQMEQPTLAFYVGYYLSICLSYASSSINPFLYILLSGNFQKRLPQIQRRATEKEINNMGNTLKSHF
Chain of melanin concentrating hormone receptor MCH1 (Q99705 whole entry): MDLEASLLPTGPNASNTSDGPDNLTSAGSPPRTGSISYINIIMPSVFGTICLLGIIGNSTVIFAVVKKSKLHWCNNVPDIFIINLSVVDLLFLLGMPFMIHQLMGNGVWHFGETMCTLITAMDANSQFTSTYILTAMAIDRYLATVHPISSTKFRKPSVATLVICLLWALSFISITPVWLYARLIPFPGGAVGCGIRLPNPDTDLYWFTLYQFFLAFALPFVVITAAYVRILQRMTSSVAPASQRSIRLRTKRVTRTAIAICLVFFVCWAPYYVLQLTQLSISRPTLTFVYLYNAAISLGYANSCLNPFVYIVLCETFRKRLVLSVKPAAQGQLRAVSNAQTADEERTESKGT

As for `C=C(C)[C@@H]1CC[C@]2(C(=O)O)CC[C@]3(C)C(CC[C@@H]4[C@@]5(C)CC[C@H](O[C@@H]6OC[C@H](O)[C@H](O)[C@H]6O[C@@H]6O[C@@H](C)[C@H](O)[C@@H](O)[C@H]6O)[C@@](C)(CO)[C@@H]5CC[C@]43C)[C@@H]12` (stereo partly drawn) [DA001, 3-O-[α-L-rhamnopyranosyl-(1→2)-α-L-arabinopyranosyl]-3,23-dihydroxy-20(29)-lupen-28-oic acid], the “reduction of cell death compared to DMSO control” value in [1] (DA001 10 μg/ml, LDH release) is “more than 60%”. The “reduction of cell death” value in [2] is listed as approximately 80%. Also, the “cytotoxicity / cell death (LDH release)” value with primary cortical neurons was “No obvious cell death was observed at all doses examined; also recorded: did not induce cytotoxicity and cell death at all concentrations examined; also recorded: no significant toxicity was observed”. For the same compound, the “BDNF expression over the control (DMSO)” value in the series on BDNF expression (12-24 hours after treatment) is reported as 3-4 fold. For the same compound, in the series on BDNF expression (after a 6 hour incubation period, DA001 pre-treatment 24 hrs, NMDA 20 μM), the “increase in BDNF expression” value came to 5 fold. In addition, the Ki in series [3] (MC1) is 5.2 µM; in series [4] (MC4), 6.3 µM. The concentration for half-maximal inhibition (IC50) in series [3] (MC1, 8 concentrations, α-MSH binding) is 10 µM; in series [4] (MC4, 8 concentrations, α-MSH binding) it was 6.8 µM. Further, the inhibition at 10 µM is 64% in series [3] (MC1, DA001 10 μM, duplicate, 125I-NDP-α-MSH, read-out: % inhibition of control specific binding); 12% on MC3; 59% in [4] (MC4, DA001 10 μM, duplicate, 125I-NDP-α-MSH, read-out: % inhibition of control specific binding); 11% on MC5; -9% in [5]; -12% in series [6]. Besides, the inhibition at 10 µM at melatonin (MT1) receptor came out at 28%.
Take `C=C(C)[C@@H]1CC[C@]2(C(=O)O)CC[C@]3(C)C(CC[C@@H]4[C@@]5(C)CC[C@H](O)[C@@](C)(CO)[C@@H]5CC[C@]43C)[C@@H]12` (stereo partly shown) [DA002, 3,23-Dihydroxy-20(29)-lupen-28-oic acid]: the “reduction of cell death compared to DA001” value in [1] was “reduced cell death prominently compared to DA001”.
On to `C=C(C)C1CCC2(C(N)=O)CCC3(C)C(CCC4C5(C)CCC(O)C(C)(CO)C5CCC43C)C12` (stereo not shown) [DA021, 3,23-Dihydroxy-20(29)-lupen-28-iminol], for which the “reduction of cell death compared to DA001” value in [1] is listed as “reduced cell death prominently compared to DA001”. In addition, the “protection of cortical neurons against NMDA insult (cell death)” value in series [1] (derivatives at 30 μM (DA026 at 10 μM), FIG. 12) is given as “showed promising protective effect”.
